Legend:
[1] = molecular target: Diamine oxidase (Sus scrofa); test: Tested for ability to competitively inhibit hog kidney diamine oxidase (DAO) in a spectrometric assay
[2] = molecular target: Diamine oxidase (Sus scrofa); test: as above; remark: listed apart in the source

SMILES	Ki [1] [µM]	Ki [2] [µM]
NCC=Cc1cnc[nH]1	0.17	0.2
C=C(CN)c1cnc[nH]1 [2-(1H-Imidazol-4-yl)-allylamine]	7.1	
NCC#Cc1cnc[nH]1 [3-(1H-Imidazol-4-yl)-prop-2-ynylamine]	1.7	

Source: BindingDB's records for doi:10.1016/S0960-894X(01)80909-4 (1993)
